Experimental data taken from US8829193B2, “PIM kinase inhibitors and methods of their use” (Novartis AG, priority 2008, dated 2014).

Key:
Pim1 kinase = Pim1 kinase (Homo sapiens (Human), UniProt P11309); test: Pim1 ATP depletion assay; type: biochemical; settings: 20 μM ATP, 40 μM BAD peptide, 2.5 nM PIM1
Description: (§1) The activity of PIM1 is measured using a luciferase-luciferin based ATP detection reagent to quantify ATP depletion resulting from kinase-catalyzed phosphoryl transfer to a peptide substrate. Compounds to be tested are dissolved in 100% DMSO and directly distributed into white 384-well plates at 0.5 μl per well. […] After 15 minutes, 10 μl of 40 μM ATP in assay buffer is added. Final assay concentrations are 2.5 nM PIM1, 20 μM ATP, 40 μM BAD peptide and 2.5% DMSO. The reaction is performed until approximately 50% of the ATP is depleted, then stopped with the addition of 20 μl KinaseGlo Plus (Promega Corporation) solution. The stopped reaction is incubated for 10 minutes and the remaining ATP detected via luminescence on the Victor2 (Perkin Elmer).

Pim2 kinase = Pim2 kinase (Homo sapiens (Human), UniProt Q9P1W9); test: Pim2 ATP depletion assay; type: biochemical; settings: 4 μM ATP, 10 μM BAD peptide, 5 nM PIM2
Description: as §1, with “of PIM2” for “of PIM1”, “0.5 piper” for “0.5 μl per”, “of 8” for “of 40”, “are 5” for “are 2.5”, “nM PIM2, 4” for “nM PIM1, 20”, “ATP, 10” for “ATP, 40”

Pim3 kinase = Pim3 kinase (Homo sapiens (Human), UniProt Q86V86); test: Pim3 ATP depletion assay; type: biochemical; settings: 40 μM ATP, 100 μM BAD peptide
Description: The activity of PIM3 is measured using a luciferase-luciferin based ATP detection reagent to quantify ATP depletion resulting from kinase-catalyzed phosphoryl transfer to a peptide substrate. Compounds to be tested are dissolved in 100% DMSO and directly distributed into white 384-well plates at 0.5 piper well. […] After 15 minutes, 10 μl of 80 μM ATP in assay buffer is added. Final assay concentrations are 5 nM PIM1, 40 μM ATP, 100 μM BAD peptide and 2.5% DMSO. The reaction is performed until approximately 50% of the ATP is depleted, then stopped by the addition of 20 μl KinaseGlo Plus (Promega Corporation) solution. The stopped reaction is incubated for 10 minutes and the remaining ATP detected via luminescence on the Victor2 (Perkin Elmer).

[1] = tested on: KMS11 (human myeloma cell line); test: Cell Proliferation Assay; type: cell-based; settings: KMS-11, 72 h, KMS11 cells, 3 days, Cell Titer-Glow
Description: KMS11 (human myeloma cell line), were cultured in IMDM supplemented with 10% FBS, sodium pyruvate and antibiotics. Cells were plated in the same medium at a density of 2000 cells per well into 96 well tissue culture plates, with outside wells vacant, on the day of assay. MM1.s (human myeloma cell line), were cultured in RPMI1640 supplemented with 10% FBS, sodium pyruvate and antibiotics. Cells were plated in the same medium at a density of 5000 cells per well into 96 well tissue culture plates, with outside wells vacant, on the day of assay.
Test compounds supplied in DMSO were diluted into DMSO at 500 times the desired final concentrations before dilution into culture media to 2 times final concentrations. Equal volumes of 2× compounds were added to the cells in 96 well plates and incubated at 37° C. for 3 days.
After 3 days plates were equilibrated to room temperature and equal volume of Cell Titer-Glow Reagent (Promega) was added to the culture wells. The plates were agitated briefly and luminescent signal was measured with luminometer.
Using the procedures for Cell Proliferation Assay described above, the EC50 concentration of compounds of the previous examples were determined in KMS11 cells as shown in the following table.

Sequence of Pim1 kinase (P11309 whole entry): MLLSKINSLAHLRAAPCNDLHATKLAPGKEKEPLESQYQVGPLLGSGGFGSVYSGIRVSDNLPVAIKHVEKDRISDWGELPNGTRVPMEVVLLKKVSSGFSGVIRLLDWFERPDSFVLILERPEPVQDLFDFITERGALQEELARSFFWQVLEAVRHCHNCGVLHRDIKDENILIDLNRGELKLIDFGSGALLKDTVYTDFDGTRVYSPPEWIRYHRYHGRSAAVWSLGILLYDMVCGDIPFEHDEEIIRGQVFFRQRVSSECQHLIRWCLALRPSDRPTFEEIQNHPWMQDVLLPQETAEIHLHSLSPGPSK
Sequence of Pim2 kinase (Q9P1W9 whole entry): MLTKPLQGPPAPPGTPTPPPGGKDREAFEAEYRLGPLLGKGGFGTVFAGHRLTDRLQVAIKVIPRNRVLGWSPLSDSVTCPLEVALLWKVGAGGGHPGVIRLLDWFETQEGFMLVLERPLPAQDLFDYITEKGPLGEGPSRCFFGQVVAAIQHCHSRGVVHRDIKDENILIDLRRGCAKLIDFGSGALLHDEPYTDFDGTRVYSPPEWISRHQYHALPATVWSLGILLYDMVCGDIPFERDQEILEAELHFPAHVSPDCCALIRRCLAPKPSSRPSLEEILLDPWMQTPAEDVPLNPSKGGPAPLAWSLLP

SMILES	IC50 (Pim1 kinase) [nM]	IC50 (Pim2 kinase) [nM]	IC50 (Pim3 kinase) [nM]	EC50 [1] [nM]
CC1CCN(c2ccncc2NC(=O)c2csc(-c3c(F)cccc3F)n2)CC1N (centres unmarked) [Example 19, N-(4-(3-amino-4-methylpiperidin-1-yl)pyridin-3-yl)-2-(2,6-difluorophenyl)thiazole-4-carboxamide]	1	8	5	930
CCO[C@@H]1C[C@H](N)CN(c2ccncc2NC(=O)c2csc(-c3c(F)cccc3F)n2)C1 [Example 23, N-(4-((3S,5R)-3-amino-5-ethoxypiperidin-1-yl)pyridin-3-yl)-2-(2,6-difluorophenyl)thiazole-4-carboxamide]	56	85	86	6540

Continued, values first:

IC50 (Pim1 kinase) [nM]	IC50 (Pim2 kinase) [nM]	IC50 (Pim3 kinase) [nM]	EC50 [1] [nM]	SMILES
1	3	3	460	N[C@H]1C[C@@H](C(F)(F)F)CN(c2ccncc2NC(=O)c2csc(-c3c(F)cccc3F)n2)C1 [Example 27, N-(4-((3S,5R)-3-amino-5-(trifluoromethyl)piperidin-1-yl)pyridin-3-yl)-2-(2,6-difluorophenyl)thiazole-4-carboxamide]
1	3	3	560	C[C@H]1CN(c2ccncc2NC(=O)c2csc(-c3c(F)cccc3F)n2)C[C@@H](N)[C@@H]1O [Example 36, N-(4-((3R,4R,5S)-3-amino-4-hydroxy-5-methylpiperidin-1-yl)pyridin-3-yl)-2-(2,6-difluorophenyl)thiazole-4-carboxamide]
4	27	8	> 10000	C[C@H]1C[C@@H](c2ccncc2NC(=O)c2csc(-c3c(F)cccc3F)n2)C[C@@H](N)[C@@H]1O [Example 41, N-(4-((1R,3R,4R,5S)-3-amino-4-hydroxy-5-methylcyclohexyl)pyridin-3-yl)-2-(2,6-difluorophenyl)thiazole-4-carboxamide (and enantiomer)]
